From PubChem BioAssay (NCI)
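Five concentrations, 48 hours, 96-well plates. GI50: concentration for 50% inhibition of growth. TGI marks complete inhibition of growth.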

Key:
Test in all cases: NCI-60 cell line screen, 48 h
786-0 renal = system: 786-0 renal
A498 renal = system: A498 renal
A549 NSCLC = system: A549 NSCLC
ACHN renal = system: ACHN renal
BT-549 breast = system: BT-549 breast
CAKI-1 renal = system: CAKI-1 renal
CCRF-CEM leukemia = system: CCRF-CEM leukemia
COLO 205 colon = system: COLO 205 colon
DU-145 prostate = system: DU-145 prostate
EKVX NSCLC = system: EKVX NSCLC
HCC-2998 colon = system: HCC-2998 colon
HCT-116 colon = system: HCT-116 colon
HCT-15 colon = system: HCT-15 colon
HOP-62 NSCLC = system: HOP-62 NSCLC
HT29 colon = system: HT29 colon
IGROV1 ovarian = system: IGROV1 ovarian
K-562 leukemia = system: K-562 leukemia
KM12 colon = system: KM12 colon
LOX IMVI melanoma = system: LOX IMVI melanoma
M14 melanoma = system: M14 melanoma
MALME-3M melanoma = system: MALME-3M melanoma
MCF7 breast = system: MCF7 breast
MDA-MB-231 breast = system: MDA-MB-231 breast
MDA-MB-435 = system: MDA-MB-435
MOLT-4 leukemia = system: MOLT-4 leukemia
NCI-H226 lung = system: NCI-H226 lung
NCI-H23 lung = system: NCI-H23 lung
NCI-H460 lung = system: NCI-H460 lung
NCI-H522 lung = system: NCI-H522 lung
NCI/ADR-RES ovarian = system: NCI/ADR-RES ovarian
OVCAR-3 ovarian = system: OVCAR-3 ovarian
OVCAR-4 ovarian = system: OVCAR-4 ovarian
OVCAR-5 ovarian = system: OVCAR-5 ovarian
OVCAR-8 ovarian = system: OVCAR-8 ovarian
PC-3 prostate = system: PC-3 prostate
RXF 393 renal = system: RXF 393 renal
SF-268 CNS = system: SF-268 CNS
SF-295 CNS = system: SF-295 CNS
SF-539 CNS = system: SF-539 CNS
SK-MEL-2 melanoma = system: SK-MEL-2 melanoma
SK-MEL-28 melanoma = system: SK-MEL-28 melanoma
SK-MEL-5 melanoma = system: SK-MEL-5 melanoma
SK-OV-3 ovarian = system: SK-OV-3 ovarian
SN12C renal = system: SN12C renal
SNB-19 CNS = system: SNB-19 CNS
SNB-75 CNS = system: SNB-75 CNS
SW-620 colon = system: SW-620 colon
T-47D breast = system: T-47D breast
TK-10 renal = system: TK-10 renal
U251 CNS = system: U251 CNS
UACC-257 melanoma = system: UACC-257 melanoma
UACC-62 melanoma = system: UACC-62 melanoma
UO-31 renal = system: UO-31 renal

Compound N#CC(C#N)=Cc1ccc(-c2ccc(-c3nc4ccccc4o3)cc2)o1 has a GI50 (786-0 renal) of 15.8 µM, a TGI (786-0 renal) of 34 µM and a GI50 (A498 renal) of 24.9 µM. The TGI (A498 renal) was 70 µM, the GI50 (A549 NSCLC) was 28.2 µM and the TGI (A549 NSCLC) was > 100 µM. The GI50 (ACHN renal) was 50.8 µM, the TGI (ACHN renal) was > 100 µM and the GI50 (BT-549 breast) was > 100 µM. The TGI (BT-549 breast) was > 100 µM, the GI50 (CAKI-1 renal) was 40 µM and the TGI (CAKI-1 renal) was > 100 µM. For the same compound, the GI50 (CCRF-CEM leukemia) was 11.6 µM, the TGI (CCRF-CEM leukemia) was > 100 µM and the GI50 (COLO 205 colon) was 40 µM. The TGI (COLO 205 colon) was > 100 µM, the GI50 (DU-145 prostate) was 36.5 µM and the TGI (DU-145 prostate) was > 100 µM. For the same compound, the GI50 (EKVX NSCLC) was > 100 µM, the TGI (EKVX NSCLC) was > 100 µM and the GI50 (HCC-2998 colon) was 47.1 µM. It also gave a TGI (HCC-2998 colon) of 96.4 µM, a GI50 (HCT-116 colon) of 18.2 µM and a TGI (HCT-116 colon) of 42.3 µM. The GI50 (HCT-15 colon) was 20.2 µM, the TGI (HCT-15 colon) was > 100 µM and the GI50 (HOP-62 NSCLC) was 21.6 µM. The TGI (HOP-62 NSCLC) was 51.9 µM, the GI50 (HT29 colon) was 41.2 µM and the TGI (HT29 colon) was > 100 µM. The GI50 (IGROV1 ovarian) was 65.8 µM, the TGI (IGROV1 ovarian) was > 100 µM and the GI50 (K-562 leukemia) was 19.3 µM. For the same compound, the TGI (K-562 leukemia) was > 100 µM, the GI50 (KM12 colon) was 19.4 µM and the TGI (KM12 colon) was > 100 µM. For the same compound, the GI50 (LOX IMVI melanoma) was 16.6 µM, the TGI (LOX IMVI melanoma) was 44.8 µM and the GI50 (M14 melanoma) was 77.4 µM. The TGI (M14 melanoma) was > 100 µM, the GI50 (MALME-3M melanoma) was 41.9 µM and the TGI (MALME-3M melanoma) was > 100 µM. The GI50 (MCF7 breast) was 7.99 µM, the TGI (MCF7 breast) was > 100 µM and the GI50 (MDA-MB-231 breast) was 19.9 µM. The TGI (MDA-MB-231 breast) was 69.5 µM, the GI50 (MDA-MB-435) was 57 µM and the TGI (MDA-MB-435) was > 100 µM. The GI50 (MOLT-4 leukemia) was 12.1 µM, the TGI (MOLT-4 leukemia) was > 100 µM and the GI50 (NCI-H226 lung) was 21 µM. It also gave a TGI (NCI-H226 lung) of 99.7 µM, a GI50 (NCI-H23 lung) of 27.2 µM and a TGI (NCI-H23 lung) of 93.8 µM. For the same compound, the GI50 (NCI-H460 lung) was 38.4 µM, the TGI (NCI-H460 lung) was > 100 µM and the GI50 (NCI-H522 lung) was 60.4 µM. For the same compound, the TGI (NCI-H522 lung) was > 100 µM, the GI50 (NCI/ADR-RES ovarian) was 20.8 µM and the TGI (NCI/ADR-RES ovarian) was 50.1 µM. The GI50 (OVCAR-3 ovarian) was 66.7 µM, the TGI (OVCAR-3 ovarian) was > 100 µM and the GI50 (OVCAR-4 ovarian) was > 100 µM. For the same compound, the TGI (OVCAR-4 ovarian) was > 100 µM, the GI50 (OVCAR-5 ovarian) was 27.1 µM and the TGI (OVCAR-5 ovarian) was 52 µM. For the same compound, the GI50 (OVCAR-8 ovarian) was 29.9 µM, the TGI (OVCAR-8 ovarian) was > 100 µM and the GI50 (PC-3 prostate) was 29.5 µM. The TGI (PC-3 prostate) was > 100 µM, the GI50 (RXF 393 renal) was 96.2 µM and the TGI (RXF 393 renal) was > 100 µM. For the same compound, the GI50 (SF-268 CNS) was 52 µM, the TGI (SF-268 CNS) was > 100 µM and the GI50 (SF-295 CNS) was 30.1 µM. The TGI (SF-295 CNS) was > 100 µM, the GI50 (SF-539 CNS) was 31.1 µM and the TGI (SF-539 CNS) was > 100 µM. The GI50 (SK-MEL-2 melanoma) was > 100 µM, the TGI (SK-MEL-2 melanoma) was > 100 µM and the GI50 (SK-MEL-28 melanoma) was > 100 µM. For the same compound, the TGI (SK-MEL-28 melanoma) was > 100 µM, the GI50 (SK-MEL-5 melanoma) was 13.1 µM and the TGI (SK-MEL-5 melanoma) was 62.5 µM. For the same compound, the GI50 (SK-OV-3 ovarian) was 38.3 µM, the TGI (SK-OV-3 ovarian) was > 100 µM and the TGI (SN12C renal) was 16.5 µM. The GI50 (SNB-19 CNS) was > 100 µM, the TGI (SNB-19 CNS) was > 100 µM and the GI50 (SNB-75 CNS) was > 100 µM. The TGI (SNB-75 CNS) was > 100 µM, the GI50 (SW-620 colon) was 20.5 µM and the TGI (SW-620 colon) was > 100 µM. For the same compound, the GI50 (T-47D breast) was 5.04 µM, the TGI (T-47D breast) was 90.1 µM and the GI50 (TK-10 renal) was 23.7 µM. For the same compound, the TGI (TK-10 renal) was 77.3 µM, the GI50 (U251 CNS) was 21.7 µM and the TGI (U251 CNS) was 52.5 µM. The GI50 (UACC-257 melanoma) was > 100 µM, the TGI (UACC-257 melanoma) was > 100 µM and the GI50 (UACC-62 melanoma) was 42.4 µM. For the same compound, the TGI (UACC-62 melanoma) was > 100 µM, the GI50 (UO-31 renal) was 58.4 µM and the TGI (UO-31 renal) was > 100 µM.
